Laboratory results published in patent US8039505B2, “Compounds for modulating T-cells” (University of Utah Research Foundation, priority 2007, dated 2011).

System: cell cycle in zebrafish embryos
Assay: Cell cycle profiles in zebrafish embryos (propidium iodide, flow cytometry)
Type: in vivo
Details: zebrafish embryos incubated from 4 hours post fertilization overnight, DNA content by flow cytometry
Procedure: FIG. 2 is a group of cell cycle profiles of active compounds tested in 24 hour zebrafish embryos. Specifically, embryos incubated with E3 fishwater (panel A), hydroxyurea (panel B), compound C4 (panel C), and compound C3 (panel D) are shown. After overnight incubation, single cell solution of embryos was prepared and incubated with propidium iodide. Samples were then subjected to flow cytometry to determine DNA content (X axis). Small arrowheads below the X-axis are placed beneath the diploid (G1) n=2 peak, and the tetraploid (G2/M) n=4 peaks. Cells between these two peaks are in S phase. Cells to the left of the G1 peak (sub G1 peak) have lost chromosomes (n<2), and are presumably dying (indicated as % debris in the right hand legend of each panel). Relative numbers of cells (Y-axis) in the different phases of the cell cycle are given on the right side of each panel.
All of these compounds were tested for effects on the cell cycle in zebrafish embryos. Zebrafish embryos were incubated at 4 hours post fertilization with compounds or controls. After overnight incubation in compounds, single cell solution of embryos was prepared and incubated with propidium iodide. Samples were then subjected to flow cytometry to determine DNA content. […] Examples are depicted in FIG. 2.
In FIG. 2, embryos incubated with (A) E3 fishwater, (B) hydroxyurea, (C) compound C4, and (D) C3 are shown. Diploid (G1, n=2) and tetraploid (G2/M, n=4) peaks are identified on the X-axis. Small arrowheads below the X-axis are placed beneath the dipoid (G1) n=2 peak, and the tetraploid (G2/M) n=4 peaks. Cells between these two peaks are in S phase. Cells to the left of the G1 peak (sub G1 peak) have lost chromosomes (n<2) and are presumably dying (indicated as % debris in the right hand legend of each panel). Relative numbers of cells (Y axis) in the different phases of the cell cycle are given on the right side of each panel.

NC(=O)NO [hydroxyurea, reference compound]
Effect on the cell cycle: S phase arrest
